# Results taken from patent US12275731B2, “Azaindole inhibitors of wild-type and mutant forms of LRRK2” (DANA-FARBER CANCER INSTITUTE, INC., priority 2018, dated 2025).
# How the values were obtained:
# Test in all cases: KinomeScan profiling
# Format in all cases: binding
# [1] = target: MYO3A (Homo sapiens, UniProt Q8NEV4); conditions: read-out: % control
# In short: (§1)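 Luminescence (RLU) was converted to percent of control, with DMSO set as 100% and a reference compound as 0%. Test compounds were run at 1 μM against 468 kinases. Kinases showing below 35% of control were scored as bound.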
# [2] = target: T1, SYK (Homo sapiens, UniProt P43405); conditions: read-out: % control
# T1 construct: purchased KinomeScan® (panel service)
# In short: as §1
# [3] = target: T2, PIK4CB (Homo sapiens, UniProt Q9UBF8); conditions: read-out: % control
# T2 construct: purchased KinomeScan® (panel service)
# In short: as §1
# [4] = target: CLK1 (Homo sapiens, UniProt P49759); conditions: CLK1, 1 μM; read-out: % control
# In short: as §1
# [5] = target: CSNK1G1 (Homo sapiens, UniProt Q9HCP0); conditions: CSNK1G1, 1 μM; read-out: % control
# In short: as §1
# [6] = target: T3, BRSK2 (Homo sapiens, UniProt Q8IWQ3); conditions: BRSK2, 1 μM; read-out: % control
# T3 sequence (Q8IWQ3 1-736): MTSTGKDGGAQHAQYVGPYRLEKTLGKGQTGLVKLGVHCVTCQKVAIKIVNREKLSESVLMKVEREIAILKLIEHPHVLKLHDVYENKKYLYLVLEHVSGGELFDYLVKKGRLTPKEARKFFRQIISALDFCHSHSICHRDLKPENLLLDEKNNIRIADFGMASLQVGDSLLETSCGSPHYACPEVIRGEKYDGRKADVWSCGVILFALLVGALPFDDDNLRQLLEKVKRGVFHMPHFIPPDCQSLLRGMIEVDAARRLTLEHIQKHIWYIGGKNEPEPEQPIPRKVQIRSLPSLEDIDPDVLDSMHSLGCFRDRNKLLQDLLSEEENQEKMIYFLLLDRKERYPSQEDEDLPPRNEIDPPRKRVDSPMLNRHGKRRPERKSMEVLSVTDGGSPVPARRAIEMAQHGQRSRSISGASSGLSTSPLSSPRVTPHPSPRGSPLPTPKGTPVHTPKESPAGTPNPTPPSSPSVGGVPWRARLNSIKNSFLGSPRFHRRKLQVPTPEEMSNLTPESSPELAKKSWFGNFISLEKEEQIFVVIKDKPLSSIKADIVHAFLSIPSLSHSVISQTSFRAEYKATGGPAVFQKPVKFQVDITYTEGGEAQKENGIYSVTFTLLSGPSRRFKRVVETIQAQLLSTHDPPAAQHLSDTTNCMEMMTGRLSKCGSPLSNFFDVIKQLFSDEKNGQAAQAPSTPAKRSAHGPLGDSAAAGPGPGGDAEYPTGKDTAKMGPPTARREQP
# In short: as §1
# [7] = target: TRPM6 (Homo sapiens, UniProt Q9BX84); conditions: TRPM6, 1 μM; read-out: % control
# In short: as §1
# [8] = target: T4, PIKFYVE (Homo sapiens, UniProt Q9Y2I7); conditions: read-out: % control
# T4 construct: purchased KinomeScan® (panel service)
# In short: as §1
# [9] = target: PFPK5(P. falciparum) (Plasmodium falciparum, UniProt P61075); conditions: read-out: % control
# In short: as §1
# [10] = target: T5, ADCK3 (Homo sapiens, UniProt Q8NI60); conditions: ADCK3, 1 μM; read-out: % control
# T5 construct: purchased KinomeScan®
# In short: as §1
# [11] = target: EGFR(S752-I759del) (Homo sapiens, UniProt P00533, DEL752-759); conditions: read-out: % control
# In short: as §1
# [12] = target: RET(V804M) (Homo sapiens, UniProt P07949, V804M); conditions: read-out: % control
# In short: as §1
# [13] = target: T6, BMPR1B (Homo sapiens, UniProt O00238); conditions: read-out: % control
# T6 construct: purchased KinomeScan®
# In short: as §1
# [14] = target: PAK4 (Homo sapiens, UniProt O96013); conditions: PAK4, 1 μM; read-out: % control
# In short: as §1
# [15] = target: FRK (Homo sapiens, UniProt P42685); conditions: read-out: % control
# In short: as §1
# [16] = target: T7, CHEK1 (Homo sapiens, UniProt O14757); conditions: CHEK1, 1 μM; read-out: % control
# T7 sequence (O14757 1-476): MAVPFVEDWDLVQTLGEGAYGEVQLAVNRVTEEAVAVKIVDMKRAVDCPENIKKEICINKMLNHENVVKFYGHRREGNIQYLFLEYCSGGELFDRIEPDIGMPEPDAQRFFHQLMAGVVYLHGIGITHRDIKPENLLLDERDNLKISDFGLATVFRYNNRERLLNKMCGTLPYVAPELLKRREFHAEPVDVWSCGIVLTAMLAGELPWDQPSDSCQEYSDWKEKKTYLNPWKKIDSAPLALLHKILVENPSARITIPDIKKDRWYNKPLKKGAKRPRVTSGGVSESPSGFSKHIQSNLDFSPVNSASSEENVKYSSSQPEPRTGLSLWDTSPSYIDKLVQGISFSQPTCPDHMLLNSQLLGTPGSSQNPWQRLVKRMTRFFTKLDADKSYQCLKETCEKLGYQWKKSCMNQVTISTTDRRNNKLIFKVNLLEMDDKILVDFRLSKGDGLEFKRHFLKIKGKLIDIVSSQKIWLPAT
# In short: as §1
# [17] = target: IGF1R (Homo sapiens, UniProt P08069); conditions: read-out: % control
# In short: as §1
# T5 sequence (Q8NI60 163-647): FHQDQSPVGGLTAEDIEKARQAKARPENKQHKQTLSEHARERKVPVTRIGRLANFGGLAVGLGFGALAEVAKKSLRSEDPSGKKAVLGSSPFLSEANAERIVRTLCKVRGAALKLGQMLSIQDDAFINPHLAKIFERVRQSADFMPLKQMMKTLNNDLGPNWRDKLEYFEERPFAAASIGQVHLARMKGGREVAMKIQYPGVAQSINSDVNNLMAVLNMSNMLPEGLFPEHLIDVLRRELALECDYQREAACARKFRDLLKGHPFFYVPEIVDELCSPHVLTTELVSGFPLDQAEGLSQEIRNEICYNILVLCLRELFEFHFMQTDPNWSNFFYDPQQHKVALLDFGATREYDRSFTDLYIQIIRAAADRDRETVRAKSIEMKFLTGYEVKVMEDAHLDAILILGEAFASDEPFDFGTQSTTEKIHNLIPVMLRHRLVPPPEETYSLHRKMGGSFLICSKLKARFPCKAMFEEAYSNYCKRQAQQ
# Chain of EGFR(S752-I759del) (P00533 with tags, fused parts or gaps DEL752-759): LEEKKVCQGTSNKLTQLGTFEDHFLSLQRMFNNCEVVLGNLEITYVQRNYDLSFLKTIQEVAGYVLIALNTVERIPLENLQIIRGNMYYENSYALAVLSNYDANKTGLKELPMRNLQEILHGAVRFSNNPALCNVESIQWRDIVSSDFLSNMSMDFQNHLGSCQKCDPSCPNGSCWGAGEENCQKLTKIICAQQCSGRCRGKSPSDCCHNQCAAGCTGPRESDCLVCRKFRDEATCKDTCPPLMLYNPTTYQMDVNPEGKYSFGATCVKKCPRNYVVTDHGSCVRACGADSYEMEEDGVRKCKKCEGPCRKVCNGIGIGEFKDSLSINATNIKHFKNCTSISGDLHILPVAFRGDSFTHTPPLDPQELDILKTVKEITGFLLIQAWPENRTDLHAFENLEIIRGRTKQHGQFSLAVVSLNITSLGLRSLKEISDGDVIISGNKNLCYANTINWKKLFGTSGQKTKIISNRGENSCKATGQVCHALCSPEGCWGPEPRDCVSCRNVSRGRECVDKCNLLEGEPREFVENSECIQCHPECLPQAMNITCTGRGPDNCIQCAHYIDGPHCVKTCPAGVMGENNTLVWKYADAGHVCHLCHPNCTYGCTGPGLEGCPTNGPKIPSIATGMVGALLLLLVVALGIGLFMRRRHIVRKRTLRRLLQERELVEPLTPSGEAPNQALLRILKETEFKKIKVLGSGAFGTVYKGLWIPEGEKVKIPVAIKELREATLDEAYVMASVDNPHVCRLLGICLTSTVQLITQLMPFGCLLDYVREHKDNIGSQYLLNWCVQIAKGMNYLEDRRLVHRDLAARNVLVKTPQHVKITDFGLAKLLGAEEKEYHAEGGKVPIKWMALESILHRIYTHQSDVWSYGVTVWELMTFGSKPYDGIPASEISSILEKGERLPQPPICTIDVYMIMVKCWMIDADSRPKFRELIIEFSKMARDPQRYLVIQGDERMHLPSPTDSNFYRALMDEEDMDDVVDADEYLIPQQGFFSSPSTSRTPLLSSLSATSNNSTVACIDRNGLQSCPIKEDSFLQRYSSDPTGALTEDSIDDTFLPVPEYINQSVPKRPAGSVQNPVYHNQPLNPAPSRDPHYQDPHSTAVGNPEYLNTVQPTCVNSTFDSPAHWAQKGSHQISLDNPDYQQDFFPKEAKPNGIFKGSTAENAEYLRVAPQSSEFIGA
# Chain of PFPK5(P. falciparum) (P61075 whole entry): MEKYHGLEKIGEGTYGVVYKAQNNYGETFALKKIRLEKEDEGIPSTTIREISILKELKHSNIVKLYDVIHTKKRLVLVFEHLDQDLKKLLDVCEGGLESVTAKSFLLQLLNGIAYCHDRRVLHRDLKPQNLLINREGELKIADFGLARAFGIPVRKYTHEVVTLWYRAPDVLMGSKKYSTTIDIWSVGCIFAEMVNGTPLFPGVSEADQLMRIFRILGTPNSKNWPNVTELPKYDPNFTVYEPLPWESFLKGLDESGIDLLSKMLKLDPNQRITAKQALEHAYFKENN
# Chain of FRK (P42685 whole entry): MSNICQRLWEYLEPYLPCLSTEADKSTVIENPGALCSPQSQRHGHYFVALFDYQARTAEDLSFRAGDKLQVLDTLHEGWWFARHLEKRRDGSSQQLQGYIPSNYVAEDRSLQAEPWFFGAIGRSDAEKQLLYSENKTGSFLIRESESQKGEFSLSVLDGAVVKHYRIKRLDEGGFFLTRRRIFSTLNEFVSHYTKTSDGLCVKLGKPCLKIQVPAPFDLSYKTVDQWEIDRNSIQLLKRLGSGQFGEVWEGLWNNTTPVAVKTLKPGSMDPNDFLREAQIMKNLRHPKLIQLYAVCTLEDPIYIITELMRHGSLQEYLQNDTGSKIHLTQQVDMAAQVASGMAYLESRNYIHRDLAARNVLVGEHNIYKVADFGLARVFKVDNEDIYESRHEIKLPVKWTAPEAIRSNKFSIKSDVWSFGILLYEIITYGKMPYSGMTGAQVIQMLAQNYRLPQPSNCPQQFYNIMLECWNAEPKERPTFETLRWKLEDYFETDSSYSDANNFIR
# Chain of MYO3A (Q8NEV4 whole entry): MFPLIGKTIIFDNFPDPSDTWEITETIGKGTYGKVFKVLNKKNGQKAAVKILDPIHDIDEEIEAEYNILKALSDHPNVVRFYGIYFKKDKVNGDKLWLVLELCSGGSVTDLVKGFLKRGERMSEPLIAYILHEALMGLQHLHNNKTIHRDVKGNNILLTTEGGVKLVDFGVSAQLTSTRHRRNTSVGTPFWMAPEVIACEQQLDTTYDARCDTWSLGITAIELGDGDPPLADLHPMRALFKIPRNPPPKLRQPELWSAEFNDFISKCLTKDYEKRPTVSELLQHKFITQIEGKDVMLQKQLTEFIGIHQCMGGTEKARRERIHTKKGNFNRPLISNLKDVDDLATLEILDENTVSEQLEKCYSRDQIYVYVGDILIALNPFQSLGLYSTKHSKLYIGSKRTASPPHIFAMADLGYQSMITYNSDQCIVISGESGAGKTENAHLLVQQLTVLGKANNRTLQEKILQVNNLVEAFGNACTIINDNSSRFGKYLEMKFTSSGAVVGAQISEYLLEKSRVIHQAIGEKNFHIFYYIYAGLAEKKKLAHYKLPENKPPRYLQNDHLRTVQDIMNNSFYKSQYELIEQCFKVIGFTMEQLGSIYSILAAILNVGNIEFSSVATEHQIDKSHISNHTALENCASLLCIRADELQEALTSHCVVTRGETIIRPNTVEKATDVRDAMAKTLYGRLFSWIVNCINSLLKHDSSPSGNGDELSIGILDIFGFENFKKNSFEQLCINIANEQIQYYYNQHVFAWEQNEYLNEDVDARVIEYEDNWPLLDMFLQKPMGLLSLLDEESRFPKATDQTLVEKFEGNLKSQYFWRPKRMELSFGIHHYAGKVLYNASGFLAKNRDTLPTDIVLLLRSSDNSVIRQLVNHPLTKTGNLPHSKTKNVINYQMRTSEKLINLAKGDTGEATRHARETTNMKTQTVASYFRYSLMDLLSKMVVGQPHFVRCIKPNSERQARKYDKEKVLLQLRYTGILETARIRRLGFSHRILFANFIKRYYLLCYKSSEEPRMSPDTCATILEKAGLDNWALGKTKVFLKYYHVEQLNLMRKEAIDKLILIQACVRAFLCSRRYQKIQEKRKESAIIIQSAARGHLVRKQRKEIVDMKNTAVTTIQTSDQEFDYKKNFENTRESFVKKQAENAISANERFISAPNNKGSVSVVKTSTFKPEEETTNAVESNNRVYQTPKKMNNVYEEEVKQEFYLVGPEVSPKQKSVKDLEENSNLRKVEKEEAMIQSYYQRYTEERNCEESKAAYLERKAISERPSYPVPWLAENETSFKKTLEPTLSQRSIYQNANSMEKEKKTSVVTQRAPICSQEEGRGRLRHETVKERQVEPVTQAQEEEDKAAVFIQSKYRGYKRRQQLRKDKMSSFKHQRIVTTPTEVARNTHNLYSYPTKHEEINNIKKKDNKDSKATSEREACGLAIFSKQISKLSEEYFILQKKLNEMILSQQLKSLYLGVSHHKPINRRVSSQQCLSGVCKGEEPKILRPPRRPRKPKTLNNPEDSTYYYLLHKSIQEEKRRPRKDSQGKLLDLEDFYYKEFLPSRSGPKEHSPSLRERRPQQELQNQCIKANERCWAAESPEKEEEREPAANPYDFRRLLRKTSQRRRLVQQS
# Chain of CSNK1G1 (Q9HCP0 whole entry): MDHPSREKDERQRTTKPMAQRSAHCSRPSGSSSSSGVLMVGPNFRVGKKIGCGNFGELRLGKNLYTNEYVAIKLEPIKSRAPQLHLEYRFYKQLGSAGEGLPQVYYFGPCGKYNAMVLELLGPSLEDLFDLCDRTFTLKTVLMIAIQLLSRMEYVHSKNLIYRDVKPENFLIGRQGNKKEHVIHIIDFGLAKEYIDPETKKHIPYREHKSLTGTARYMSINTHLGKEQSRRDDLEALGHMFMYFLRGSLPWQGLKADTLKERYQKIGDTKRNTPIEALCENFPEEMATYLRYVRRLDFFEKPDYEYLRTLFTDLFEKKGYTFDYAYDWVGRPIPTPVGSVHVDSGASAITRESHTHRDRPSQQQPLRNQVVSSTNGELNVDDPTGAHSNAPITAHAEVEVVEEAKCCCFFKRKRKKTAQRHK
# T6 sequence (O00238 14-502): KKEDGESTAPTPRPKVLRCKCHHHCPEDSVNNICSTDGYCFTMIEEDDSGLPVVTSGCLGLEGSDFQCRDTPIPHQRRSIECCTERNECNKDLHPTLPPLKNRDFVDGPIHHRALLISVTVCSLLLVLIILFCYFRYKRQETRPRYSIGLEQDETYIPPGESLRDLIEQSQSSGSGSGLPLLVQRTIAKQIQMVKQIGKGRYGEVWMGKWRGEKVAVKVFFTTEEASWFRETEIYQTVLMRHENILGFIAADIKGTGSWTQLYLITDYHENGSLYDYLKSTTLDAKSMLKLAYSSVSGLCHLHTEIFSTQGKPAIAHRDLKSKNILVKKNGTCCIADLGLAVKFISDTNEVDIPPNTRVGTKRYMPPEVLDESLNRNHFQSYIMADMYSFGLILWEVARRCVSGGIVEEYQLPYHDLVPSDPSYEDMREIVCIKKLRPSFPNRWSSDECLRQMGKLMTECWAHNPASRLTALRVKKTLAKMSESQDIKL
SMILES,remaining binding at 1 µM [1],remaining binding at 1 µM [2],remaining binding at 1 µM [3],remaining binding at 1 µM [4],remaining binding at 1 µM [5],remaining binding at 1 µM [6],remaining binding at 1 µM [7],remaining binding at 1 µM [8],remaining binding at 1 µM [9],remaining binding at 1 µM [10],remaining binding at 1 µM [11],remaining binding at 1 µM [12],remaining binding at 1 µM [13],remaining binding at 1 µM [14],remaining binding at 1 µM [15],remaining binding at 1 µM [16],remaining binding at 1 µM [17]
"CNc1c(-c2ccc(C(=O)N3CCC(N4CCOCC4)CC3)cc2)cnc2[nH]cc(Cl)c12 [Compound 96, (4-(3-chloro-4-(methylamino)-1H-pyrrolo[2,3-b]pyridin-5-yl)phenyl)(4-morpholinopiperidin-1-yl)methanone]",64%,100%,58%,33%,19%,95%,82%,66%,100%,100%,98%,61%,54%,31%,84%,84%,100%
"O=C(c1ccc(-c2cnc3[nH]cc(Cl)c3c2NC2CCCC2)cc1)N1CCC(N2CCOCC2)CC1 [Compound 101, (4-(3-chloro-4-(cyclopentylamino)-1H-pyrrolo[2,3-b]pyridin-5-yl)phenyl)(4-morpholinopiperidin-1-yl)methanone]",100%,100%,100%,59%,92%,94%,100%,98%,100%,68%,100%,99%,95%,100%,100%,83%,86%
"CNc1c(-c2cnn([C@H]3CCN(C(C)=O)C[C@@H]3F)c2)cnc2[nH]cc(Cl)c12 [Compound 77, 1-((3S,4S)-4-(4-(3-chloro-4-(methylamino)-1H-pyrrolo[2,3-b]pyridin-5-yl)-1H-pyrazol-1-yl)-3-fluoropiperidin-1-yl)ethan-1-one]",69%,100%,59%,84%,81%,100%,89%,53%,100%,100%,100%,52%,47%,65%,100%,89%,91%
